According to ChEMBL document CHEMBL3507680, “University of Dundee, Gates Library screen for HepG2 cell viability”:

Assay: Human HepG2 cell viability assay in 384 well format
Type: toxicity, cell-based
Design: dose 125 nL, time 70.5 hour; concentration not given beside the values
Conditions: HepG2 cells, read-out: Inhibition

SMILES | cytotoxicity at 70.5 h [%]
Cc1ccc(S(=O)(=O)c2ncccc2CN2CCN(C)CC2)cc1 | -11.2
COCCNC(=O)CCN1C(=O)CC2(CCCC2)C1=O | -15.7
O=c1c(CN2CCSCC2)coc(O)c1CN1CCCC1 | 29.9
COCCn1cc(CC(=O)Nc2nc3c(s2)CCC3)c2ccccc21 | -6.21
CN1C(=O)COc2ccc(NC(=O)CCc3nc4cccnc4[nH]3)cc21 | -9.73
Cc1nn(-c2ccc(C(=O)O)cc2)c2c1C(c1cccs1)SCC(=O)N2 (stereo not given) | 0.275
Cc1nn(-c2ccc(C(=O)O)cc2)c2c1C(C(C)C)SCC(=O)N2 (stereo not given) | -2.14
Cc1cc(Br)c2c(c1)C1(CC(=O)Nc3c1cnn3C(C)C)C(=O)N2 (stereo not given) | -24.3
Cc1ccc(S(=O)(=O)c2ncccc2CN2CCN(CCO)CC2)cc1 | -30.6
O=C(CCc1nc2ccccc2[nH]1)Nc1ccc2c(c1)OCC(=O)N2 | -11.6
CC(C)n1nc(O)c2c1NC(=O)CSC2c1cnn(C)c1 (stereo not given) | -19.6
O=C(CCc1nc2cc(Br)cnc2[nH]1)NCCN1CCOCC1 | -10.2
Cc1ccc(-c2ncc(C(=O)N3CCCC(CCN)C3)c(O)n2)cc1 (stereo not given) | -7.81
CC(=O)N1C[C@@H]2CC[C@H](C1)N(S(=O)(=O)c1ccc(F)cc1Cl)C2 | -6.08
CCCNS(=O)(=O)c1ccc(C(=O)NC(CC)c2cnn(C)c2)cc1 (stereo not given) | -4.79
CCc1nn(C)c(Cl)c1CN1CCN(c2nc(C(N)=O)cs2)CC1 | -3.53
CN1CCCNC(=O)C12CCN(C(=O)c1ccc3[nH]cnc3c1)CC2 | -3.14
Cc1cc(C)n(CC(=O)N2Cc3cnc(C(C)(C)C)nc3C2)n1 | -4.01
CN(C)C[C@@H]1CN(C(=O)Cc2cccc(O)c2)C[C@@H]1CO | -7.03
Cc1ccsc1-c1nc(CN(C)Cc2noc(C(C)C)n2)c(C)o1 | -10.3
CN1CC2(CCC1=O)CCN(CC[C@@H](O)c1ccccc1)CC2 | 19.6
Cc1cc(CN[C@@H](C)C(N)=O)c(C)s1 | -7.91
CC(=O)Nc1ccc(-c2cn(CCn3c(C)cc(C)nc3=O)nn2)cc1 | -6.08

SMILES | cytotoxicity at 70.5 h [%]
CCc1ccccc1OC1CN(C(=O)CN(C)Cc2cccnc2)C1 | 14
CN1C[C@@H](NC(=O)c2cc(F)cc(F)c2)C[C@H]1C(=O)NCc1ncc[nH]1 | -16.2
COCCN1CCC2(CCC1=O)CN(C1CCOCC1)CCN2C (stereo not given) | -10.7
Cc1ccc2nc(CNCCCN3CCCC3)cc(O)c2c1 | -9.2
Cc1nn(CCNC(C)Cn2cncn2)c(C)c1Cl (stereo not given) | 7.1
Cc1ccc(CN2CCCC(c3nnc(CN4CCCC4)n3C)C2)s1 (stereo not given) | -0.483
Cc1ncsc1CN1C[C@H](NC(=O)C2CCOCC2)[C@@H](C(C)C)C1 | -14.2
CCCN(Cc1nccn1C)C(=O)c1cc(C)nc(C)n1 | -9.67
Cc1cccc(-c2nc(CN3CCOCS3(=O)=O)c(C)o2)c1 | -6.34
CC(C)c1nc(CN(C)C(=O)CNS(=O)(=O)c2cccs2)cs1 | -6.67
Cc1cnccc1CN(C)C(=O)c1cccc(CCC(C)(C)O)c1 | -1.91
Cc1cc(N(C)CCN(C)C)n2nc(C)cc2n1 | -1.46
C=C(C)COc1ccccc1NC(=O)N1CCOCC1CO (stereo not given) | 7.4
Cc1cc(F)ccc1CN1CCCC(O)(CN2CCCC2)C1 (stereo not given) | -1.52
COc1ccc(CC2(CO)CCN(c3cc(C(N)=O)ccn3)CC2)cc1 | -2.15
COc1cc(F)ccc1C(C(=O)O)N(C)CCN1CCCC1 (stereo not given) | 12.1
COCc1cc(NCCCSc2nnc(C)s2)ncn1 | -6.65
COc1cc(N2CCC(c3nccn3Cc3ccccn3)CC2)ncn1 | -4.99
O=C1OCCN1Cc1cc(C(F)(F)F)ccc1F | -7.38
CNc1cc(C)nc(N2C[C@@H](C(=O)O)[C@H](C3CC3)C2)n1 | -1.21
Cc1c[nH]c(CN(C)C(C(=O)O)c2c(F)cccc2OC(C)C)n1 (stereo not given) | 1.64
CCN1CCCC1CNC(=O)c1cc(COc2cccc(F)c2)[nH]n1 (stereo not given) | 0.339
CCCc1nc(C)cc(N2CCC3(CCC(=O)N(CC(N)=O)C3)CC2)n1 | -8.54

SMILES | cytotoxicity at 70.5 h [%]
C=C(C)COc1ccccc1NC(=O)NC1CCOCC1 | 2.28
Cc1ccccc1CN1CC[C@@]2(O)CCN(C(=O)C3CCC3)C[C@H]2C1 | 2.03
CN(Cc1ccccc1)C(=O)CCN1C[C@H](C2CC2)[C@@H](N(C)C)C1 | -10.8
c1ccc2c(c1)CC(CNCc1ccncc1)(N1CCCCC1)C2 | -4.17
CC(C)C(C)N(Cc1ccccn1)Cc1ccco1 (stereo not given) | -22.8
Cc1nc(CN2CCCC(Cn3cncn3)C2)nc2ccccc12 (stereo not given) | 19
Cc1cc(C)n(CC2CCCN2C(=O)c2cn[nH]c2C)n1 (stereo not given) | -1.06
Cc1nc(C)n(C2CCCN(C(=O)c3ccc4nccn4c3)C2)n1 (stereo not given) | 22.7
Cc1nc(C)n(C2CCCN(C(=O)c3ccc4[nH]nnc4c3)C2)n1 (stereo not given) | 0.449
Cc1cc(C)cc(CNC(c2ccccc2)c2nccn2C)c1 (stereo not given) | 1.26
CCOc1ncccc1C(=O)N1CCCC1Cn1nc(C)cc1C (stereo not given) | 5.47
Cc1cc(C)n(CC2CCCN2C(=O)c2cccc(C#N)c2)n1 (stereo not given) | -2.63
Cc1nc(C)n(C2CCCN(C(=O)c3ccnc(N(C)C)c3)C2)n1 (stereo not given) | -3.3
COc1cc(C(=O)N2CCCC2c2noc(C(C)C)n2)on1 (stereo not given) | -2.66
Cc1cnn(CC2CCCN2c2ncnc3ccsc23)c1 (stereo not given) | 5.5
c1ccc(Cc2nnc(CN3CCc4cncnc4C3)o2)cc1 | 1.25
CC(=O)N(Cc1ncc(C)o1)C1CCN(Cc2nccn2C)C1 (stereo not given) | 2.28
CCc1noc(C)c1C(=O)NCC(c1ccc(C)cc1)N(C)C (stereo not given) | -3.99
CC(=O)N(Cc1ncc(C(C)C)o1)C1CCN(CCC#N)C1 (stereo not given) | -7
COc1ccccc1CC(=O)N1CCC(NCc2ccccn2)CC1 | 21
C1CC(c2nnc(CN3CCCC3c3noc(C4CC4)n3)o2)C1 (stereo not given) | -7.54
Cc1ncc2c(n1)CN(Cc1nc(Cc3ccccc3)no1)CC2 | -8.87
CCc1ncc2c(n1)CN(Cc1nnc(Cc3ccccc3)o1)CC2 | -1.62

SMILES | cytotoxicity at 70.5 h [%]
c1cnc(-c2nc(CN3CCN(CC4CC4)CC3)cs2)nc1 | -5.7
O=C(c1ccc(Cn2ccccc2=O)o1)N1CCSCC1 | -8.03
Cc1ccc(-c2nc(C(=O)N3CCOCC3)cs2)c(C)c1 | -12.3
O=C(Nc1ccc(CCN2CCOCC2)cc1)C1CCC1 | -3.21
NC(=O)C1CCN(CCc2ccc(NC(=O)C3CC3)cc2)CC1 | -3.12
O=C(NCc1csc(Br)c1)N1CCOCC1 | -4.76
O=C(CCCNc1ncccn1)Nc1cc(C(F)(F)F)c[nH]c1=O | -2.93
CCOC(=O)c1sc2ccsc2c1CNC(=O)CCOC | 16.3
CCc1nc2n(n1)CC(NCc1nc(-c3ccccn3)no1)CC2 (stereo not given) | -3.45
CCOC(=O)c1sc2ccsc2c1CNC(=O)C(C)OC (stereo not given) | 3.36
CC(C)(C)OC(=O)N1CCN(C(=O)CCn2cccn2)CC1 | -4.56
CCc1nnc(CN2CCc3cnc(C)nc3C2)o1 | -3.58
CCc1ccccc1OCC(=O)N1CCOCC1c1ncon1 (stereo not given) | 28.4
CN(C)CC1CN(Cc2nnc(C(C)(C)C)o2)CCO1 (stereo not given) | 11.9
O=C(CCCN1CCOC1=O)Nc1cnn(-c2ccccc2Cl)c1 | -5.24
CCN1CCN(CCCNC(=O)NC(C)c2nncn2C)CC1 (stereo not given) | 2.39
CC(C)c1nc2c(n1C)CCN(Cc1nc(-c3cccnc3)no1)C2 | -11.9
COc1c(CNCCNC(=O)c2ccccc2F)c(C)nn1C | -15.6
O=C(CCN1CCOC1=O)Nc1cnn(-c2ccccc2Cl)c1 | -7.73
COc1c(CNC2CCCOc3ccccc32)c(C(C)C)nn1C (stereo not given) | -4.69
Cc1nc(C)c(C(=O)NCCNC(=O)Cc2ccc(F)cc2)s1 | 10.7
CC(NC(=O)NCCCN1CCCC1)c1nncn1C (stereo not given) | -7.79
NC(=O)C1CCN(C(=O)c2ccn(-c3cccc(F)c3)n2)C1 (stereo not given) | -19.8

SMILES | cytotoxicity at 70.5 h [%]
NC(=O)C1CCN(C(=O)c2ccn(-c3cccc(Cl)c3)n2)C1 (stereo not given) | -17.8
CC(C)c1nc2c(n1C)CCN(Cc1nc(-c3ccoc3)no1)C2 | -4.46
CCOc1cc(C)nc(N2CCN(C(=O)C(C)NC(C)=O)CC2)n1 (stereo not given) | -1.89
CN(C)C(=O)c1cccc(CN2CCN(CC(O)C(C)(C)C)CC2)c1 (stereo not given) | -11.5
Cc1ccoc1C(=O)N1CCCC(c2cc(C(F)(F)F)[nH]n2)C1 (stereo not given) | -8.09
Cc1ccc(C(=O)NS(=O)(=O)c2cc(F)ccc2F)c(=O)[nH]1 | -13.1
Cc1ccc(C)c(S(=O)(=O)NC(=O)c2ccc(C)[nH]c2=O)c1 | -4.64
Cc1ccc(C(=O)NS(=O)(=O)c2cc(Br)ccc2C)c(=O)[nH]1 | -7.4
O=C(CCc1cccc(Cl)c1Cl)N1CCOCC1c1ncon1 (stereo not given) | -1.88
COc1cc(CNCC(O)c2ccc(F)cc2F)cc2c1OCO2 (stereo not given) | 4.59
CCS(=O)(=O)c1ccccc1N1CCC(NC2CCCC2)CC1 | -2.15
COCCCN(C)C1CCCN(Cc2noc(C3CC3)n2)C1 (stereo not given) | 11.8
CCOCCN1CCN(CCCS(C)(=O)=O)CC1C (stereo not given) | 11.8
Cc1cc(CN(C)CC(c2cccs2)N2CCOCC2)on1 (stereo not given) | -7.4
Cc1nc(CN2CCCC(N(C)CC3CCCC3)C2)no1 (stereo not given) | 0.0887
CN(Cc1ccccc1C#N)C1CCN(CCc2ccccn2)CC1 | -3.57
C=C(Cl)CN(C)C1CCN(CCc2ccccn2)CC1 | -6.31
N#Cc1cccc(CN2CCCC2Cn2cccn2)c1 (stereo not given) | -1.88
Cc1noc(C)c1CN(C)CC(c1cccs1)N1CCOCC1 (stereo not given) | -4.33
COc1ccc(CCNC(=O)CN2CCCC2c2noc(C)n2)cc1 (stereo not given) | -1.93
COc1c(CNC2CCCOc3ccc(F)cc32)c(C(C)C)nn1C (stereo not given) | -4.87
COc1cc(CNCC(O)c2ccc(C)cc2)cc2c1OCO2 (stereo not given) | -2.01
COc1cc(CNCC(O)c2cccc(F)c2)cc2c1OCO2 (stereo not given) | 1.4
